Laboratory results published in patent EP0689839A2, “Use of inhibitors of adenosine triphosphatase for the manufacture of a medicament for the treatment of disorders anociated with beta-amyloid peptide” (ELI LILLY AND COMPANY, priority 1994, dated 1996).
Where “and” joins values, the source holds several entries; their conditions need not be identical. Equal entries are not always repeated.

Assays:
β-amyloid peptide [1] = assay: β-amyloid peptide production in human fetal primary cortical cultures (ELISA); type: cell-based; details: 1 µM; twenty four hour-conditioned medium; endogenous amyloid precursor protein
Experimental: In order to better understand this phenomenon, human fetal primary cortical cultures, which secrete β-amyloid peptide as a result of endogenous amyloid precursor protein processing, were treated with 1 µM bafilomycin. Twenty four hour-conditioned medium was collected and evaluated using enzyme-linked immunosorbent assay (ELISA).

[2] = test system: human fetal primary cortical cultures; assay: Cytotoxicity in human fetal primary cortical cultures; type: cell-based; details: 1 µM
β-amyloid peptide [3] = assay: β-Amyloid Peptide Production Inhibition (Cellular Assay), ELISA of conditioned media; type: cell-based; details: normalized for cytotoxicity (MTT)
Experimental: (§1) Two cell lines (human kidney cell line 293 and Chinese hamster ovary cell line CHO) were stably transfected with the gene for APP751 containing the double mutation Lys₆₅₁-Met₆₅₂ to Asn₆₅₁-Leu₆₅₂ (APP-751 numbering) commonly called the Swedish mutation using the method described in Citron, et al., Nature (London), 360:672-674 (1992). The transfected cell lines were designated as 293 751 SWE and CHO 751 SWE, and were plated in Corning 96 well plates at 2.5 x 10⁴ or 1 x 10⁴ cells per well respectively in Dulbecco's […] essential media (DMEM) plus 10% fetal bovine serum. Following overnight incubation at 37°C in an incubator equilibrated with 10% carbon dioxide (CO₂) and humidified air, the media were removed and replaced with 200 µl per well of media containing a macrolide. After a two hour pretreatment period, the media were again removed and replaced with fresh media containing the test compound and the cells were incubated for an additional two hours.
After treatment, plates were centrifuged at 1200 x g for five minutes at room temperature to pellet cellular debris from the conditioned media. From each well, 100 µl of conditioned media were transferred into an ELISA plate precoated with antibody 266 against βamyloid peptide(13-28) (Seubert et al., supra.) and stored at 4°C overnight. An ELISA assay employing labelled antibody 6C6 (against β-amyloid peptide-1-16) was run the next day to measure the amount of β-amyloid peptide produced.
The results of the β-amyloid peptide ELISA were fit to a standard curve and expressed as ng/ml β-amyloid peptide. In order to normalize for cytotoxicity, these β-amyloid peptide results were divided by the MTT results and expressed as a percentage of the results from a drug-free control.

[4] = test system: 293 751 SWE and CHO 751 SWE; assay: Cytotoxic effects / cellular viability by MTT in the cellular assay; type: cell-based
Experimental: as §1
Cytotoxic effects of the compounds were measured by a modification of the method of Hansen, et al., Journal of Immununological Methods, 119:203-210 (1989). […] The difference in the OD562nm and the OD650nm was measured in a UVmax microplate reader as an indicator of the cellular viability.

vacuolar ATPases = details: relative to other bafilomycins; cited from earlier work
[5] = 1 µg/ml, read-out: Percent Inhibition

Compound: CO/C1=C\C(C)=C\[C@@H](C)[C@@H](O)[C@@H](C)C/C(C)=C/C=C/[C@H](OC)[C@@H]([C@@H](C)[C@@H](O)[C@H](C)[C@@]2(O)C[C@@H](O)[C@H](C)[C@@H](C(C)C)O2)OC1=O [bafilomycin]
- inhibition of β-amyloid peptide production (β-amyloid peptide [1]): Greater than 75%
- cytotoxicity [2]: no cytotoxicity was observed

Compound: CO/C1=C\C(C)=C\C(C)C(O)C(C)C/C(C)=C/C=C/C(OC)C(C(C)C(O)C(C)C(=O)/C=C/C(C)C(O)C(C)C)OC1=O (stereo not shown) [Bafilomycin D, bafilomycin D]
- inhibition at 1 µg/mL (β-amyloid peptide [3]; [5]): 4 ± 3%

Compound: CO/C1=C\C(C)=C\C(C)C(O)C(C)C/C(C)=C/C=C/C(OC)C(C(C)C(O)C(C)C2(O)CC(O)C(C)C(C(C)C)O2)OC1=O (stereo not shown) [Bafilomycin A₁, bafilomycin A₁]
- Percent Inhibition (β-amyloid peptide [3]; 0.3 µM): 91 ± 1% and 92 ± 1%
- inhibition at 0.3 µM (β-amyloid peptide [3]; 0.3 µM, read-out: Percent Inhibition): 90 ± 2%

Compound: C/C=C/[C@H]1O[C@@](O)([C@@H](C)[C@H](O)[C@H](C)[C@H]2OC(=O)/C(OC)=C/C(C)=C/[C@@H](C)[C@@H](O)[C@@H](CC)[C@@H](O)[C@H](C)C/C(C)=C/C=C/[C@@H]2OC)C[C@@H](O[C@H]2C[C@@H](O)[C@H](OC(N)=O)[C@@H](C)O2)[C@@H]1C [Concanamycin A, concanamycin A]
- Percent Inhibition (β-amyloid peptide [3]; 1.2 µM): 74 ± 4%
- Percent Viability ([4]; 1.2 µM): 97%

Compound: bafilomycin A₁
- Percent Viability ([4]; 0.3 µM): 112% and 99% and 102%

Compound: bafilomycin D
- poorer inhibitor of vacuolar ATPases than other bafilomycins, especially bafilomycin A1 (vacuolar ATPases): ~40 fold

Compound: elaiophyline
- Percent Inhibition (β-amyloid peptide [3]; 0.6 µM): 98 ± 2%
- Percent Inhibition (β-amyloid peptide [3]; 1.2 µM): 100 ± 1%
- Percent Inhibition (β-amyloid peptide [3]; 2.4 µM): 100 ± 2%
- Percent Inhibition (β-amyloid peptide [3]; 4.9 µM): 100 ± 1%
- Percent Inhibition (β-amyloid peptide [3]; 9.8 µM): 100 ± 1% and 131 ± 1%

Compound: Bafilomycin B₁
- Percent Inhibition (β-amyloid peptide [3]; 1 µg/ml): 87 ± 1%

Compound: CO/C1=C\C(C)=C\C(C)C(O)C(C)C/C(C)=C/C=C/C(OC)C(C(C)C(O)C(C)C2(O)CC(OC(=O)/C=C/C(=O)O)C(C)C(C(C)C)O2)OC1=O (stereo not shown) [Bafilomycin C₁]
- inhibition at 1 µg/mL (β-amyloid peptide [3]; [5]): 90 ± 2%
